Results from article PMC9738192, “Lupane Triterpene Derivatives Improve Antiproliferative Effect on Leukemia Cells through Apoptosis Induction” (Molecules, 2022).
≈ marks a conversion by molar mass, not a printed value.

Tests used:
K562 cell line [1] = test: Assessment of intracellular reactive oxygen species (CM-H2DCFDA); assay type: cell-based, human
Method: Cells (1× 10^5) were cultured in 12-well plates and were stained with 10 μM of chloromethyl 2′,7′-dichlorodihydrofluorescein diacetate (CM-H2DCFDA) for 30 min at 37 °C. Briefly, the cells were treated with compound 1m at two different concentrations (19.5 and 39.0 µg/mL) and control (H2O2 at 50 µM) to later be incubated for 2 and 4 h. After this time, cells were analyzed using CytoFlex flow cytometry (Beckman Coulter, Indianapolis, IN, USA).

Vero cell line = test: Bioassay of viability in Vero cell line (SRB); assay type: cell-based, green monkey; conditions: Chlorocebus sabaeus; Vero normal cell line, 48 h
Text: (§1) Chronic myeloid leukemia (K562; ATCC CCL-243), acute myeloid leukemia (HL60; ATCC CCL-240), and green monkey kidney cells (Vero, ATCCCCL-81) from the American Type Culture Collection (ATCC) were provided by María Antonieta Chávez Gónzalez from Unidad de Investigación Oncológica, Hospital de Oncología, Centro Médico Nacional, Instituto Mexicano del Seguro Social (IMSS, Ciudad de México, México). The K562 cell line was maintained with RPMI medium at 10% FBS, the HL60 cell line was maintained with IMDM medium at 20% FBS, and the VERO cell line was maintained with DMEM medium at 10% FBS; 1% penicillin-streptomycin was added to both cell lines and incubated at an atmosphere of culture with 95% humidity and 5% CO2 at 37 °C. All evaluation was performed between 4 and 5 cell passages.
The cells (1 × 10^4 cells/well) were seeded onto 96-well plates and incubated at 37 °C and 5% CO2 until reaching 70–80% confluence. The medium was replaced with fresh medium containing the […] different concentrations (0.1, 1, 10, and 100 μg/mL) of compounds for 48 h. After 100 μL of 10% trichloroacetic acid were added to each well, and cells were incubated for 30 min at 4 °C. Then the supernatant was removed, 100 μL of sulforhodamine B (SRB) at 0.1% with 1% of acetic acid were added, and incubated again for 15 min. Subsequently, washings were carried out with 1% acetic acid; and finally, the dye was solubilized with 200 uL of tris-base at 10 mM; and the optical density was measured at 560 nm using a GloMax spectrophotometer (Promega, WI, USA).
(§2) All cytometric data were analyzed using FlowJo^TM v10.6 software. Results of viability are expressed as the concentration of agent that reduces cell growth by 50% (IC50), calculated by GraphPad Prism 5 software. The data were expressed as means ± SEM. Statistical significance was calculated with a one-way analysis of variance (ANOVA) followed by Dunnett’s post-hoc test, applying a p < 0.05 significance level.

HL60 cell line = test: Bioassay of viability in leukemic cell lines (DAPI, flow cytometry); assay type: cell-based, human; conditions: for IC50: Homo sapiens, HL-60, HL60, 48 h
Text: as §1
(§3) In all cases, medium with DMSO (0.1%) was used as a negative control, and etoposide was used as positive control for K562, HL60, Vero cell lines, and normal MNC. All tests were carried out in triplicate.
(§4) A total of 2 × 10^5 cells/well were cultured into 24-well plates and treated with different concentrations of four compounds (0.1, 1, 10, and 100 μg/mL) for 48 h. At the end of this time, the cells were collected and stained with 4′,6-diamidino-2-phenylindole dihydrochloride (DAPI) at 500 ng/mL for 30 min, according to manufacturer instructions, for 15 min in darkness. The samples were then analyzed by flow cytometry using a CytoFlex flow cytometer (Beckman Coulter, Indianapolis, IN, USA).
as §2

K562 cell line [2] = test: as above; assay type: cell-based, human; conditions: for IC50: Homo sapiens, K562, 48 h
Text: as §1, §3, §4, §2

[3] = tested on: peripheral blood mononuclear cells (MNC); test: Viability test in normal mononuclear cells (DAPI, flow cytometry); assay type: cell-based; conditions: Homo sapiens, PBMC, 48 h
Method: Normal mononuclear cells were obtained from normal human peripheral blood monocytes and donated by the corresponding author (Moo-Puc) of the manuscript submitted. The MNC was purified with FicollPaque Plus (Pharmacia Biotech, Uppsala, Sweden) by centrifugation at 400× g at room temperature for 30 min according to the manufacturer’s protocol. Once the MNC were obtained, they were resuspended in RPMI medium (ATCC) with 10% FBS, and they were counted using a hemocytometer, previously stained with a trypan blue solution, verifying the viability of 95% [61].
Cells were plated at 2 × 10^5 cells/well in 24-well plates and incubated with different concentrations of compounds T1m (0.1, 1, 10, and 100 μg/mL) for 48 h. RPMI with 10% FBS was used as a culture medium for cell growth. After this time, cells were collected, washed with PBS, and stained with DAPI at 500 ng/mL for 30 min, according to manufacturer instructions. Cells analysis was carried out in a CytoFlex flow cytometer (Beckman Coulter, Indianapolis, IN, USA).
All cytometric data were analyzed using FlowJo^TM v10.6 software. […] The data were expressed as means ± SEM. Statistical significance was calculated with a one-way analysis of variance (ANOVA) followed by Dunnett’s post-hoc test, applying a p < 0.05 significance level.

K562 cells [4] = test: Apoptosis assay (annexin V-FITC / 7-AAD); assay type: cell-based, human
Method: Cells (2 × 10^5) were cultured in 24-well plates and treated with compound T1m at two different concentrations (19.5 and 39.0 µg/mL), to later be incubated for 18, 24, and 48 h. After this time, cells were washed with PBS and stained with annexin V-FITC and 7-AAD apoptosis kit (BD Bioscience) and incubated in the dark for 15 min. Then they were analyzed by CytoFlex flow cytometry (Beckman Coulter, Indianapolis, IN, USA).

K562 cell line [5] = test: Assessment of mitochondrial membrane potential (rhodamine 123); assay type: cell-based, human; conditions: 18 h, Rho-123
Method: Cells (1× 10^5) were cultured in 12-well plates and treated with compound 1m at two different concentrations (19.5 and 39.0 µg/mL), to later be incubated for 18 h. After this time, cells were stained with 5 μM of rhodamine 123 (Rho-123) and incubated for 30 min at 37 °C. Briefly, cells were washed with PBS and analyzed using a Cytoflex flow cytometer (Beckman Coulter, Indianapolis, IN, USA).

K562 cells [6] = test: Cell cycle assay (DAPI, flow cytometry); assay type: cell-based, human
Method: One million cells of K562 were cultured in 12-well plates and incubated for 18, 24, and 48 h with compound T1m at two different concentrations (19.5 and 39.0 μg/mL). After this time, the cells were collected and centrifuged at 300× g at room temperature for 5 min. The cells were resuspended in PBS, added absolute ethanol on ice, and incubated for 1 h at 4 °C. After that. Cells were centrifuged at 300× g at 4 °C for 5 min. Next, cells were washed with PBS 3% FBS and permeabilized for 20 min with 0.1% triton. After, the cells were stained with DAPI at 500 ng/mL for 1 h. After this procedure, cells were analyzed using […]. Cells analysis was carried out in an Attune flow cytometer (Thermo Fisher Scientific, Carlsbad, CA, USA).

## OO [Compound H2O2, H2O2, reference compound]
K562 cell line [1]; K562, damage control (50 µM), 2 h
  ROS increase vs negative control: seven-fold

## C=C(C)[C@@H]1CC[C@]2(C(=O)O)CC[C@]3(C)C(CCC4[C@@]5(C)CC[C@@H](O)[C@](C)(CO)C5CC[C@]43C)C12 (stereo partly drawn) [Compound T1, 3α,24-dihydroxylup-20(29)-en-28-oic acid]
Vero cell line
  IC50: 137.2 ± 1.1 µg/mL (≈ 290 µM)
HL60 cell line
  IC50: > 100 µg/mL
K562 cell line [2]
  IC50: 100 ± 1 µg/mL (≈ 212 µM)
K562 cell line [2]; IC50 Vero over IC50 K562
  selectivity index (IS): 1.37

## C=C(C)[C@@H]1CC[C@]2(C(=O)O)CC[C@]3(C)C(CCC4[C@@]5(C)CC[C@@H](OC(C)=O)[C@](C)(CO)C5CC[C@]43C)C12 (stereo partly drawn) [Compound T1Ac, 3α-acetyl-24-hydroxylup-20(29)-en-28-oic acid]
Vero cell line
  IC50: > 200 µg/mL
HL60 cell line
  IC50: > 100 µg/mL
K562 cell line [2]
  IC50: > 100 µg/mL

## C=C(C)[C@@H]1CC[C@]2(C(=O)O)CC[C@]3(C)C(CCC4[C@@]5(C)CC[C@@H](OC)[C@](C)(CO)C5CC[C@]43C)C12 (stereo partly drawn) [Compound T1m, 3α-methoxy-24-hydroxylup-20(29)-en-28-oic acid]
Vero cell line
  IC50: 66.8 ± 1 µg/mL (≈ 137 µM)
K562 cell line [1]; K562, 19.5 μg/mL, 2 h
  ROS increase vs negative control: five-fold
K562 cell line [1]; K562, 19.5 μg/mL, 4 h
  ROS increase vs negative control: six-fold
K562 cell line [1]; K562, 39.0 μg/mL, 2 h
  ROS increase vs negative control: seven-fold
K562 cell line [1]; K562, 39.0 μg/mL, 4 h
  ROS increase vs negative control: nine-fold
[3]
  IC50: 86.5 ± 1.2 µg/mL (≈ 178 µM)
HL60 cell line
  IC50: 68.6 ± 1.2 µg/mL (≈ 141 µM)
HL60 cell line; IC50 MNC over IC50 HL60
  selectivity index (IS): 1.26
K562 cell line [2]
  IC50: 39.5 ± 1.1 µg/mL (≈ 81.1 µM)
K562 cell line [2]; IC50 MNC over IC50 K562
  selectivity index (IS): 2.19
K562 cell line [2]; IC50 Vero over IC50 K562
  selectivity index (IS): 1.69
K562 cells [4]; K562, 19.5 μg/mL, 48 h
  apoptotic cell population (positive annexin V-FITC): 11.91 ± 1.04%
K562 cells [4]; K562, 39.0 μg/mL, 18 h
  apoptotic cell population (positive annexin V-FITC): 12.50 ± 0.65%
K562 cells [4]; K562, 39.0 μg/mL, 48 h
  apoptotic cell population (positive annexin V-FITC): 27.47 ± 1.23%
K562 cells [4]; K562, at IC50 (39.0 μg/mL), 24 h
  apoptotic cell population (positive annexin V-FITC): 24.35 ± 1.04%
K562 cell line [5]; K562, 19.5 μg/mL
  MMP (mitochondrial membrane potential) compared with negative control: approximately 45%
K562 cell line [5]; K562, 39.0 μg/mL
  MMP (mitochondrial membrane potential) compared with negative control: 67%
K562 cells [6]; K562, 19.5 μg/mL, 18 h
  cell cycle distribution vs negative control: No difference
K562 cells [6]; K562, 39.0 μg/mL, 18 h
  sub-G0 population: 7.29 ± 0.05%
K562 cells [6]; K562, 39.0 μg/mL, 24 h
  sub-G0 population: 13.30 ± 1.20%
K562 cells [6]; K562, at IC50 (39.0 μg/mL), 48 h
  sub-G0 population: 85.85 ± 0.15%

## C=C(C)[C@@H]1CC[C@]2(C(=O)O)CC[C@]3(C)C(CCC4[C@@]5(C)CC[C@H]6OC(C)(C)OC[C@@]6(C)C5CC[C@]43C)C12 (stereo partly drawn) [Compound T2, 3α,23-O-isopropylidenyl-3α,23-dihydroxylup-20(29)-en-28-oic acid]
Vero cell line
  IC50: > 200 µg/mL
HL60 cell line
  IC50: > 100 µg/mL
K562 cell line [2]
  IC50: > 100 µg/mL

## C=C(C)[C@@H]1CC[C@]2(C(=O)OC)CC[C@]3(C)C(CCC4[C@@]5(C)CC[C@H]6OC(C)(C)OC[C@@]6(C)C5CC[C@]43C)C12 (stereo partly drawn) [Compound T2COOMe, methyl ester of 3α,23-O-isopropylidenyl-3α,23-dihydroxylup-20(29)-en-28-oic acid]
Vero cell line
  IC50: > 200 µg/mL
HL60 cell line
  IC50: > 100 µg/mL
K562 cell line [2]
  IC50: > 100 µg/mL

## COc1cc([C@@H]2c3cc4c(cc3[C@@H](O[C@@H]3O[C@@H]5CO[C@@H](C)O[C@H]5[C@H](O)[C@H]3O)[C@H]3COC(=O)[C@H]23)OCO4)cc(OC)c1O [Etoposide, etoposide, reference compound]
Vero cell line
  IC50: 29.4 ± 1.1 µg/mL (≈ 50 µM)
K562 cell line [1]; K562, positive control, 2 h
  ROS increase vs negative control: six-fold
[3]
  IC50: > 100 µg/mL
HL60 cell line
  IC50: 1.3 ± 0.3 µg/mL (≈ 2.21 µM)
HL60 cell line; IC50 MNC over IC50 HL60
  selectivity index (IS): > 76.92
HL60 cell line; IC50 Vero over IC50 HL60
  selectivity index (IS): 22.63
K562 cell line [2]
  IC50: 14.7 ± 1.2 µg/mL (≈ 25 µM)
K562 cell line [2]; IC50 MNC over IC50 K562
  selectivity index (IS): > 6.80
K562 cell line [2]; IC50 Vero over IC50 K562
  selectivity index (IS): 2.00
K562 cells [4]; K562, positive control, 18 h
  apoptotic cell population (positive annexin V-FITC): 13.34 ± 0.04%
K562 cells [4]; K562, positive control, 24 h
  apoptotic cell population (positive annexin V-FITC): 17.91 ± 0.06%
K562 cells [4]; K562, positive control, 48 h
  apoptotic cell population (positive annexin V-FITC): 32.60 ± 0.55%
K562 cells [6]; K562, 14.7 μg/mL, 18 h, positive control
  G2 population: increase
